# Data published in PubChem BioAssay (NCI).
#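 1) Cells in 96-well plates. 2) Compound, 48 h, 5 concentrations. 3) Linear interpolation between surrounding doses. 4) Unreached endpoint = highest concentration. GI50 marks 50% less growth. TGI marks complete inhibition of growth.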
# Assays:
# Assay in all cases: inhibition of tumour cell growth, NCI panel, 48 h
# 786-0 renal = system: 786-0 renal
# A498 renal = system: A498 renal
# A549 NSCLC = system: A549 NSCLC
# ACHN renal = system: ACHN renal
# BT-549 breast = system: BT-549 breast
# CCRF-CEM leukemia = system: CCRF-CEM leukemia
# COLO 205 colon = system: COLO 205 colon
# DU-145 prostate = system: DU-145 prostate
# EKVX NSCLC = system: EKVX NSCLC
# HCC-2998 colon = system: HCC-2998 colon
# HCT-116 colon = system: HCT-116 colon
# HCT-15 colon = system: HCT-15 colon
# HL-60(TB) leukemia = system: HL-60(TB) leukemia
# HOP-62 NSCLC = system: HOP-62 NSCLC
# HOP-92 NSCLC = system: HOP-92 NSCLC
# HS 578T breast = system: HS 578T breast
# HT29 colon = system: HT29 colon
# IGROV1 ovarian = system: IGROV1 ovarian
# K-562 leukemia = system: K-562 leukemia
# KM12 colon = system: KM12 colon
# LOX IMVI melanoma = system: LOX IMVI melanoma
# M14 melanoma = system: M14 melanoma
# MALME-3M melanoma = system: MALME-3M melanoma
# MCF7 breast = system: MCF7 breast
# MDA-MB-231 breast = system: MDA-MB-231 breast
# MDA-MB-435 = system: MDA-MB-435
# MOLT-4 leukemia = system: MOLT-4 leukemia
# NCI-H226 lung = system: NCI-H226 lung
# NCI-H23 lung = system: NCI-H23 lung
# NCI-H460 lung = system: NCI-H460 lung
# NCI-H522 lung = system: NCI-H522 lung
# NCI/ADR-RES ovarian = system: NCI/ADR-RES ovarian
# OVCAR-3 ovarian = system: OVCAR-3 ovarian
# OVCAR-4 ovarian = system: OVCAR-4 ovarian
# OVCAR-5 ovarian = system: OVCAR-5 ovarian
# OVCAR-8 ovarian = system: OVCAR-8 ovarian
# PC-3 prostate = system: PC-3 prostate
# RPMI-8226 leukemia = system: RPMI-8226 leukemia
# RXF 393 renal = system: RXF 393 renal
# SF-268 CNS = system: SF-268 CNS
# SF-295 CNS = system: SF-295 CNS
# SF-539 CNS = system: SF-539 CNS
# SK-MEL-2 melanoma = system: SK-MEL-2 melanoma
# SK-MEL-28 melanoma = system: SK-MEL-28 melanoma
# SK-MEL-5 melanoma = system: SK-MEL-5 melanoma
# SK-OV-3 ovarian = system: SK-OV-3 ovarian
# SN12C renal = system: SN12C renal
# SNB-19 CNS = system: SNB-19 CNS
# SNB-75 CNS = system: SNB-75 CNS
# SR leukemia = system: SR leukemia
# SW-620 colon = system: SW-620 colon
# T-47D breast = system: T-47D breast
# TK-10 renal = system: TK-10 renal
# U251 CNS = system: U251 CNS
# UACC-257 melanoma = system: UACC-257 melanoma
# UACC-62 melanoma = system: UACC-62 melanoma
# UO-31 renal = system: UO-31 renal
# CAKI-1 renal = system: CAKI-1 renal
smiles,measurement,setting,value
C=C1C(=O)O[C@H]2[C@H]1CC/C(COC(=O)NCc1cc3ccccc3[nH]1)=C\CC[C@@]1(C)O[C@@H]21,GI50,786-0 renal,1.76 µM
same,TGI,786-0 renal,3.52 µM
same,GI50,A498 renal,10.9 µM
same,TGI,A498 renal,23.4 µM
same,GI50,A549 NSCLC,10.3 µM
same,TGI,A549 NSCLC,27.2 µM
same,GI50,ACHN renal,1.38 µM
same,TGI,ACHN renal,2.75 µM
same,GI50,BT-549 breast,1.56 µM
same,TGI,BT-549 breast,3.14 µM
same,GI50,CCRF-CEM leukemia,0.443 µM
same,TGI,CCRF-CEM leukemia,3.36 µM
same,GI50,COLO 205 colon,1.8 µM
same,TGI,COLO 205 colon,3.59 µM
same,GI50,DU-145 prostate,1.52 µM
same,TGI,DU-145 prostate,2.93 µM
same,GI50,EKVX NSCLC,1.64 µM
same,TGI,EKVX NSCLC,3.53 µM
same,GI50,HCC-2998 colon,2.02 µM
same,TGI,HCC-2998 colon,3.67 µM
same,GI50,HCT-116 colon,1.37 µM
same,TGI,HCT-116 colon,2.77 µM
same,GI50,HCT-15 colon,1.54 µM
same,TGI,HCT-15 colon,3.32 µM
same,GI50,HL-60(TB) leukemia,0.865 µM
same,TGI,HL-60(TB) leukemia,3.16 µM
same,GI50,HOP-62 NSCLC,10.3 µM
same,TGI,HOP-62 NSCLC,23.3 µM
same,GI50,HOP-92 NSCLC,1.29 µM
same,TGI,HOP-92 NSCLC,2.98 µM
same,GI50,HS 578T breast,2.8 µM
same,TGI,HS 578T breast,15.6 µM
same,GI50,HT29 colon,2.21 µM
same,TGI,HT29 colon,4.7 µM
same,GI50,IGROV1 ovarian,1.46 µM
same,TGI,IGROV1 ovarian,3.46 µM
same,GI50,K-562 leukemia,1.63 µM
same,TGI,K-562 leukemia,9.18 µM
same,GI50,KM12 colon,3.3 µM
same,TGI,KM12 colon,12.8 µM
same,GI50,LOX IMVI melanoma,1.26 µM
same,TGI,LOX IMVI melanoma,2.61 µM
same,GI50,M14 melanoma,1.74 µM
same,TGI,M14 melanoma,3.85 µM
same,GI50,MALME-3M melanoma,1.81 µM
same,TGI,MALME-3M melanoma,3.58 µM
same,GI50,MCF7 breast,1.45 µM
same,TGI,MCF7 breast,3.26 µM
same,GI50,MDA-MB-231 breast,1.65 µM
same,TGI,MDA-MB-231 breast,3.57 µM
same,GI50,MDA-MB-435,1.75 µM
same,TGI,MDA-MB-435,3.48 µM
same,GI50,MOLT-4 leukemia,2.43 µM
same,TGI,MOLT-4 leukemia,7.64 µM
same,GI50,NCI-H226 lung,1.6 µM
same,TGI,NCI-H226 lung,3.15 µM
same,GI50,NCI-H23 lung,2.16 µM
same,TGI,NCI-H23 lung,5.18 µM
same,GI50,NCI-H460 lung,3.78 µM
same,TGI,NCI-H460 lung,14.6 µM
same,GI50,NCI-H522 lung,1.5 µM
same,TGI,NCI-H522 lung,3.29 µM
same,GI50,NCI/ADR-RES ovarian,2.52 µM
same,TGI,NCI/ADR-RES ovarian,8.06 µM
same,GI50,OVCAR-3 ovarian,1.69 µM
same,TGI,OVCAR-3 ovarian,3.52 µM
same,GI50,OVCAR-4 ovarian,2.2 µM
same,TGI,OVCAR-4 ovarian,7.63 µM
same,GI50,OVCAR-5 ovarian,2.26 µM
same,TGI,OVCAR-5 ovarian,5.12 µM
same,GI50,OVCAR-8 ovarian,2.02 µM
same,TGI,OVCAR-8 ovarian,5.41 µM
same,GI50,PC-3 prostate,1.63 µM
same,TGI,PC-3 prostate,3.46 µM
same,GI50,RPMI-8226 leukemia,0.604 µM
same,TGI,RPMI-8226 leukemia,3.27 µM
same,GI50,RXF 393 renal,1.09 µM
same,TGI,RXF 393 renal,2.36 µM
same,GI50,SF-268 CNS,2.08 µM
same,TGI,SF-268 CNS,5.4 µM
same,GI50,SF-295 CNS,8.23 µM
same,TGI,SF-295 CNS,20.9 µM
same,GI50,SF-539 CNS,1.73 µM
same,TGI,SF-539 CNS,3.26 µM
same,GI50,SK-MEL-2 melanoma,2.46 µM
same,TGI,SK-MEL-2 melanoma,7.25 µM
same,GI50,SK-MEL-28 melanoma,1.74 µM
same,TGI,SK-MEL-28 melanoma,3.36 µM
same,GI50,SK-MEL-5 melanoma,2.98 µM
same,TGI,SK-MEL-5 melanoma,9.71 µM
same,GI50,SK-OV-3 ovarian,13.8 µM
same,TGI,SK-OV-3 ovarian,26.8 µM
same,GI50,SN12C renal,1.45 µM
same,TGI,SN12C renal,3.17 µM
same,GI50,SNB-19 CNS,5.62 µM
same,TGI,SNB-19 CNS,20.4 µM
same,GI50,SNB-75 CNS,3.91 µM
same,TGI,SNB-75 CNS,19.2 µM
same,GI50,SR leukemia,2.32 µM
same,TGI,SR leukemia,8.75 µM
same,GI50,SW-620 colon,1.72 µM
same,TGI,SW-620 colon,3.84 µM
same,GI50,T-47D breast,1.8 µM
same,TGI,T-47D breast,4.33 µM
same,GI50,TK-10 renal,2.26 µM
same,TGI,TK-10 renal,4.19 µM
same,GI50,U251 CNS,4.59 µM
same,TGI,U251 CNS,16.4 µM
same,GI50,UACC-257 melanoma,2.11 µM
same,TGI,UACC-257 melanoma,4.61 µM
same,GI50,UACC-62 melanoma,1.62 µM
same,TGI,UACC-62 melanoma,3.2 µM
same,GI50,UO-31 renal,1.2 µM
same,TGI,UO-31 renal,2.43 µM
C/C(=C\COP(=O)(O)OP(=O)(O)O)CC/C=C(\C)CNc1ccccc1,TGI,786-0 renal,> 50 µM
same,TGI,A549 NSCLC,> 50 µM
same,TGI,ACHN renal,> 50 µM
same,TGI,BT-549 breast,44.5 µM
same,TGI,CAKI-1 renal,> 50 µM
same,TGI,CCRF-CEM leukemia,10.3 µM
same,TGI,COLO 205 colon,> 50 µM
same,TGI,DU-145 prostate,> 50 µM
same,TGI,EKVX NSCLC,> 50 µM
same,TGI,HCT-116 colon,> 50 µM
same,TGI,HCT-15 colon,> 50 µM
same,TGI,HOP-62 NSCLC,> 50 µM
same,TGI,HS 578T breast,> 50 µM
same,TGI,HT29 colon,> 50 µM
same,TGI,IGROV1 ovarian,> 50 µM
same,TGI,K-562 leukemia,> 50 µM
same,TGI,KM12 colon,> 50 µM
same,TGI,LOX IMVI melanoma,> 50 µM
same,TGI,M14 melanoma,> 50 µM
same,TGI,MCF7 breast,> 50 µM
same,TGI,MDA-MB-231 breast,> 50 µM
same,TGI,MDA-MB-435,> 50 µM
same,TGI,MOLT-4 leukemia,> 50 µM
same,TGI,NCI-H226 lung,> 50 µM
same,TGI,NCI-H460 lung,> 50 µM
same,TGI,NCI-H522 lung,> 50 µM
same,TGI,NCI/ADR-RES ovarian,> 50 µM
same,TGI,OVCAR-5 ovarian,> 50 µM
same,TGI,OVCAR-8 ovarian,> 50 µM
same,TGI,PC-3 prostate,> 50 µM
same,TGI,RPMI-8226 leukemia,0.0403 µM
same,TGI,RXF 393 renal,> 50 µM
same,TGI,SF-268 CNS,> 50 µM
same,TGI,SF-295 CNS,> 50 µM
same,TGI,SF-539 CNS,> 50 µM
same,TGI,SK-MEL-2 melanoma,> 50 µM
same,TGI,SK-MEL-28 melanoma,> 50 µM
same,TGI,SK-MEL-5 melanoma,> 50 µM
same,TGI,SK-OV-3 ovarian,> 50 µM
same,TGI,SN12C renal,> 50 µM
same,TGI,SNB-19 CNS,> 50 µM
same,TGI,SNB-75 CNS,> 50 µM
same,TGI,SW-620 colon,> 50 µM
same,TGI,T-47D breast,> 50 µM
same,TGI,TK-10 renal,> 50 µM
same,TGI,U251 CNS,> 50 µM
same,TGI,UACC-257 melanoma,> 50 µM
same,TGI,UACC-62 melanoma,> 50 µM
same,TGI,UO-31 renal,> 50 µM
